Assay results published in patent US12071624B2, “Antisense oligonucleotide targeting ARL4C molecule, and nucleic acid drug using antisense oligonucleotide” (OSAKA UNIVERSITY, priority 2018, dated 2024).
[AmNA] = 2',4'-bridged nucleic acid with N-methyl amide bridge (AmNA); d = 2'-deoxy (DNA)

Tests used:
[1] = tested on: nuclear localization of YAP in A549 cells; experiment: Anti-YAP/TAZ antibody staining in A549 cells; format: cell-based, human; details: A549 cells transfected at 25 nM
Protocol: HLE cells, HCT116 cells, and A549 cells were transfected with 25 to 50 nM ASO and 10 to 20 nM siRNA using Lipofectamine 3000 (Invitrogen, Carlsbad, CA, USA) or RNAiMAX (Invitrogen). Transfected cells were used in the experiments 36 to 48 hours after the end of the transfection.
HLE cells or A549 cells were transfected with control ASO, ASO-1316, and ASO-3223 at 25 nM, and were stained with an anti-YAP/TAZ antibody; the results are shown in (c) of FIG. 6.

S2-CP8/Luc cells = experiment: Xenograft orthotopic transplantation model using pancreatic cancer cells; format: in vivo, mouse; details: twice a week from 3 days after transplantation, 28 days after transplantation
Protocol: Assay based on the xenograft orthotopic transplantation model using pancreatic cancer cells was performed by arranging the method described in the literature (Kim M P. et. al., Nat Protoc 2009; 4: 1670-80). Specifically, S2-CP8/Luc cells (5×10^5 cells) were suspended in 100 μl of Hanks' Balanced Salt Solution (HBSS) containing 50% matrigel, and were orthotopically transplanted in the central part of the pancreas using a 27 G needle. Three days after transplantation, the mice were divided into two groups, a control ASO-administered group (n=6) and an ARL4C ASO-administered group (n=7). […] Tumors were quantified once a week using the IVIS imaging system (Xenogen Corp.). In the in-vivo imaging, 100 μl of VivoGlo luciferin (30 mg/ml) was intraperitoneally administered, and bioluminescence images were recorded eight minutes after the administration. The quantification of the tumors was carried out in the following manner: a region of interest (ROI) was selected, and a radiance value of the same was measured using Living Image 4.3.1 Software (Caliper Life Science). The mice were euthanized 28 days after the transplantation, tumor weights and the number of mesenteric lymph nodes (lymph nodes of 1 mm or larger in diameter) were determined, and histological analysis was carried out. […]

A549/Luc cells = experiment: Xenograft orthotopic transplantation model using lung cancer cells; format: in vivo, mouse
Protocol: Eight-week-old male nude mice (BALB/cAJcl-nu/nu, CLEA Japan, Inc.) were intraperitoneally injected with medetomidine (0.75 mg/kg), midazolam (4 mg/kg), and butorphanol (5 mg/kg) so as to be anesthetized. The xenograft orthotopic transplantation model was formed by transplanting human lung cancer cells into the left lungs of mice in the following order. A549/Luc cells (approximately 2×10^6 cells) were suspended in 10 μl of PBS (phosphate buffered saline) and 10 μl of Matrigel (BD Biosciences, San Jose, CA, USA), and a 29 G needle attached to a 0.5 ml insulin syringe (BD Biosciences, San Jose, CA, USA) was used to inject the same through the intercostal space to a depth of 2 mm in the left lung. The incision in the skin was closed with a 5-0 polypropylene suture, and the mice were rested on a warm carpet until they were fully recovered.
One week after the tumor transplantation, tumor establishment was confirmed using an IVIS imaging system (Xenogen Corp., Alameda, CA, USA). In the in-vivo imaging, 100 μl of VivoGlo luciferin (30 mg/ml) was administered via the tail vein, and bioluminescence imaging was recorded 5 minutes after the administration. Mice with established tumors were then divided into two groups, a control ASO inhalation group (n=7) and an ARL4C ASO inhalation group (n=9) in such a manner that the groups had identical IVIS signal intensities. […] When 21 days elapsed after the tumor transplantation, tumor sizes were determined using the IVIS imaging system, and then the mice were euthanized for histological analysis. […]
In an experiment in a xenograft orthotopic transplantation model using lung cancer cells, A549/Luc cells were transplanted into the left lung (day 0), and transbronchial administration of control ASO and ARL4C ASO-1316 was carried out when 7, 11 and 15 days had elapsed after the transplantation. […] In addition, when 7 and 21 days had elapsed since the transplantation, luminescence intensities of luciferase emitted from tumors in the left lungs in the mice were measured using software of IVIS/Kodak; the results are shown in the right part of (a) of FIG. 11. […]

| Substance | nuclear localization of YAP [1] | cancer metastasis to mesenteric lymph nodes (S2-CP8/Luc cells) | proliferation of A549/Luc cells in left lung (luciferase luminescence intensity) (A549/Luc cells; 200 μg/body transbronchially on days 7, 11 and 15, days 7 and 21) | Ki-67-positive cells in left lung tumor (A549/Luc cells; day 21) | expression of ARL4C in left lung tumor (immunostaining) (A549/Luc cells; day 21) |
| --- | --- | --- | --- | --- | --- |
| ASO-3223: 19-mer ARL4C ASO of Table 1, SEQ ID NO 55 (antisense NNNGGTTACAGTATTTNNC; sugars from the 5' end [AmNA]3 d13 [AmNA]2 d1, backbone, methylation of C and the base at N not given here; further chemistry not fully specified) | inhibited the nuclear localization of YAP |  |  |  |  |
| ASO-1316: 15-mer AmNA/phosphorothioate ASO targeting ARL4C, base sequence SEQ ID NO: 1 gcatacctcaggtaa; Table 1 SEQ ID NO 13 (antisense GCATACCTCAGGTAA; AmNA and phosphorothioate modified, pattern not given here) | inhibited the nuclear localization of YAP | could suppress cancer metastasis to mesenteric lymph nodes | inhibited A549/Luc cells from proliferating | Ki-67-positive cells decreased in number | decreased expression of ARL4C |
